Columns and labels:
Details in all cases: incubation time: 72 h
[1] = test system: HDQ-P1; assay: normalised response (% of control), CellTiter-Glo; higher = more viable cells (100 = DMSO, 0 = benzethonium chloride kill control)
Method in brief: (§1)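 Two readouts were taken after 72 h: CellTox Green fluorescence (485/520 nm) first, then CellTiter-Glo luminescence after 10 min at room temperature. Breast cancer cell lines had been seeded as 20 µl suspension into 384-well plates holding compound at 5 concentrations in 10-fold steps across a compound-specific 10,000-fold range. Each value is a normalised signal at a single concentration, with plates scaled to 0.1 % DMSO (100) and a positive kill control (0).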

[2] = test system: MFM-223; assay: as above
Method in brief: as §1

[3] = test system: CAL-120; assay: as above
Method in brief: as §1

[4] = test system: MDA-MB-436; assay: as above
Method in brief: as §1

[5] = test system: BT-474; assay: as above
Method in brief: as §1

[6] = test system: HCC1937; assay: as above
Method in brief: as §1

[7] = test system: HCC1143; assay: as above
Method in brief: as §1

[8] = test system: Hs578T; assay: as above
Method in brief: as §1

[9] = test system: MCF-10A; assay: as above
Method in brief: as §1

[10] = test system: MDA-MB-231; assay: as above
Method in brief: as §1

[11] = test system: CAL-148; assay: as above
Method in brief: as §1

[12] = test system: MDA-MB-468; assay: as above
Method in brief: as §1

[13] = test system: CAL-51; assay: as above
Method in brief: as §1

[14] = test system: BT-549; assay: as above
Method in brief: as §1

[15] = test system: SK-BR-3; assay: as above
Method in brief: as §1

[16] = test system: CAL-85-1; assay: as above
Method in brief: as §1

[17] = test system: MDA-MB-453; assay: as above
Method in brief: as §1

[18] = test system: HCC1599; assay: as above
Method in brief: as §1

[19] = test system: DU-4475; assay: as above
Method in brief: as §1

[20] = test system: HDQ-P1; assay: normalised viability (% of control), CellTiter-Blue; higher = more viable cells (100 = DMSO, 0 = benzethonium chloride kill control)
Description: (§2)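 DSRT, CellTiter-Blue viability, 72 h incubation. Signal is normalised to DMSO and benzethonium chloride controls. Value is the normalised response at dose 1.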

[21] = test system: MFM-223; assay: as above
Description: as §2

[22] = test system: CAL-120; assay: as above
Description: as §2

[23] = test system: MDA-MB-436; assay: as above
Description: as §2

[24] = test system: BT-474; assay: as above
Description: as §2

[25] = test system: HCC1937; assay: as above
Description: as §2

[26] = test system: HCC1143; assay: as above
Description: as §2

[27] = test system: Hs578T; assay: as above
Description: as §2

[28] = test system: MDA-MB-231; assay: as above
Description: as §2

[29] = test system: CAL-148; assay: as above
Description: as §2

[30] = test system: MDA-MB-468; assay: as above
Description: as §2

[31] = test system: CAL-51; assay: as above
Description: as §2

[32] = test system: BT-549; assay: as above
Description: as §2

[33] = test system: SK-BR-3; assay: as above
Description: as §2

[34] = test system: CAL-85-1; assay: as above
Description: as §2

[35] = test system: MDA-MB-453; assay: as above
Description: as §2

[36] = test system: HCC1599; assay: as above
Description: as §2

[37] = test system: DU-4475; assay: as above
Description: as §2

Row | SMILES | normalised response [1] [%] | normalised response [2] [%] | normalised response [3] [%] | normalised response [4] [%] | normalised response [5] [%] | normalised response [6] [%] | normalised response [7] [%] | normalised response [8] [%] | normalised response [9] [%] | normalised response [10] [%] | normalised response [11] [%] | normalised response [12] [%] | normalised response [13] [%] | normalised response [14] [%] | normalised response [15] [%] | normalised response [16] [%] | normalised response [17] [%] | normalised response [18] [%] | normalised response [19] [%] | normalised viability [20] [%] | normalised viability [21] [%] | normalised viability [22] [%] | normalised viability [23] [%] | normalised viability [24] [%] | normalised viability [25] [%] | normalised viability [26] [%] | normalised viability [27] [%] | normalised viability [28] [%] | normalised viability [29] [%] | normalised viability [30] [%] | normalised viability [31] [%] | normalised viability [32] [%] | normalised viability [33] [%] | normalised viability [34] [%] | normalised viability [35] [%] | normalised viability [36] [%] | normalised viability [37] [%]
1 | Nc1ccn([C@@H]2O[C@H](CO)[C@@H](O)C2(F)F)c(=O)n1 [Gemcitabine] (0.1 nM) | 95.1 | 94.5 | 93.6 | 102 | 97 | 95.8 | 92.6 | 106 | 99.7 | 94.5 | 96 | 95.8 | 101 | 98.4 | 93.4 | 94.2 | 107 | 97.4 | 99.9 | 111 | 101 | 96.5 | 108 | 87 | 76.1 | 101 | 114 | 94.6 | 103 | 100 | 105 | 108 | 102 | 96.8 | 109 | 89.4 | 93.5
2 | CC1(C)CCC(c2ccc(Cl)cc2)=C(CN2CCN(c3ccc(C(=O)NS(=O)(=O)c4ccc(N[C@H](CCN5CCOCC5)CSc5ccccc5)c(S(=O)(=O)C(F)(F)F)c4)cc3)CC2)C1 [Navitoclax] (1 nM) | 106 | 93.8 | 94 | 95.6 | 95.7 | 98.2 | 88.7 | 97.6 | 93.5 | 99.2 | 90.3 | 95.1 | 74.1 | 102 | 92.4 | 91.8 | 94.4 | 98.6 | 101 | 67 | 69.9 | 73.8 | 59.8 | 88.9 | 88.2 | 81.6 | 99.2 | 84.6 | 99.2 | 90.2 | 109 | 103 | 78.4 | 79.1 | 83.4 | 90.9 | 88.6
3 | CC(O)(CS(=O)(=O)c1ccc(F)cc1)C(=O)Nc1ccc(C#N)c(C(F)(F)F)c1 (stereo unspecified) [Bicalutamide] (1 nM) | 102 | 107 | 107 | 104 | 110 | 101 | 105 | 99 | 107 | 104 | 109 | 107 | 114 | 111 | 106 | 104 | 91.7 | 109 | 99 | 100 | 94.8 | 96 | 99.1 | 113 | 77 | 102 | 112 | 111 | 105 | 110 | 110 | 107 | 86.9 | 92.2 | 97.8 | 93.8 | 112
4 | Cc1cc(Nc2nc(N[C@@H](C)c3ncc(F)cn3)ncc2Cl)[nH]n1 [AZD1480] (0.1 nM) | 104 | 94.9 | 100 | 104 | 98.7 | 102 | 96.7 | 96.8 | 102 | 98.3 | 95.5 | 94.8 | 117 | 104 | 98.7 | 102 | 101 | 78.9 | 97.2 | 124 | 92.3 | 93.4 | 114 | 114 | 122 | 98.1 | 116 | 93.5 | 112 | 111 | 118 | 109 | 105 | 91.2 | 102 | 97 | 115
5 | C=CCn1c(=O)c2cnc(Nc3ccc(N4CCN(C)CC4)cc3)nc2n1-c1cccc(C(C)(C)O)n1 [MK1775] (1 nM) | 87.7 | 85.6 | 92.9 | 85.8 | 94.4 | 97.9 | 91.4 | 95.8 | 80.6 | 90.5 | 87.4 | 95.2 | 114 | 101 | 78.3 | 101 | 90.2 | 105 | 96.6 | 84.2 | 94.8 | 83.5 | 97.9 | 90.5 | 106 | 104 | 106 | 95.2 | 99.8 | 105 | 89 | 107 | 92.9 | 78.4 | 104 | 103 | 86.6
6 | C/C(=C\c1csc(C)n1)[C@@H]1C[C@@H]2O[C@]2(C)CCC[C@H](C)[C@H](O)[C@@H](C)C(=O)C(C)(C)[C@@H](O)CC(=O)N1 [Ixabepilone] (0.1 nM) | 100 | 103 | 95.5 | 105 | 104 | 98 | 98.5 | 100 | 107 | 103 | 99.3 | 104 | 80 | 98.8 | 108 | 97.6 | 127 | 115 | 101 | 97.2 | 78.8 | 78.8 | 104 | 90.4 | 89.2 | 80.9 | 90 | 99.1 | 105 | 86.7 | 110 | 90.8 | 79.6 | 84 | 93.5 | 97.3 | 107
7 | Cn1cc(C2=C(c3cn(C4CCN(Cc5ccccn5)CC4)c4ccccc34)C(=O)NC2=O)c2ccccc21 [Enzastaurin] (1 nM) | 96.8 | 103 | 98.3 | 94.2 | 96.4 | 96.9 | 96.6 | 105 | 106 | 98.5 | 104 | 104 | 61.3 | 102 | 109 | 105 | 109 | 102 | 101 | 107 | 82.1 | 86.2 | 130 | 105 | 97.2 | 92.5 | 98.2 | 87.5 | 98.9 | 99 | 114 | 113 | 92.5 | 86.3 | 96.4 | 104 | 108
8 | CCNC(=O)CCC/C=C\C[C@@H]1[C@@H](/C=C/[C@@H](O)CCc2ccccc2)[C@H](O)C[C@@H]1O [Bimatoprost] (0.55 nM) | 92.7 | 94.3 | 95.8 | 98.5 | 95.8 | 99.9 | 92.6 | 93.3 | 91.1 | 101 | 98.3 | 99.3 | 90.8 | 103 | 85.8 | 96.6 | 108 | 88.5 | 102 | 119 | 94.9 | 91.6 | 111 | 110 | 103 | 99 | 113 | 120 | 96.5 | 109 | 120 | 103 | 117 | 94.7 | 102 | 115 | 111
